Assays:
[1] = Antiangiogenic activity in VEGF-165 and bFGF-stimulated chicken embryo chorioallantoic membrane assessed as inhibition of blood vessel formation after 40 hrs by microscopy; type: functional, tissue-based, Gallus gallus
[2] = Induction of microtubule depolymerization in rat A10 cells after 18 hrs by indirect immunofluorescence assay; type: cell-based
MDA-MB-435 [3] = test: Antiproliferative activity against human MDA-MB-435 cells after 48 hrs by sulforhodamine B assay; type: functional, cell-based; details: MDA-MB-435, 48 h
HeLa [4] = test: Antiproliferative activity against human HeLa cells after 48 hrs by sulforhodamine B assay; type: functional, cell-based
HeLa [5] = test: Antiproliferative activity against human HeLa cells overexpressing wild type beta3 tubulin after 48 hrs by sulforhodamine B assay; type: functional, cell-based
[6] = Antiproliferative activity against human SKOV3 cells overexpressing wild type beta3 tubulin after 48 hrs by sulforhodamine B assay; type: functional, cell-based; details: SK-OV-3, 48 h
[7] = Antiproliferative activity against human SKOV3-MDR1-M6/6 cells overexpressing wild type beta3 tubulin after 48 hrs by sulforhodamine B assay; type: functional, cell-based; details: SKOV3-MDR1-M6/6, 48 h
A549 = test: Growth inhibition of human A549 cells after 48 hrs by sulforhodamine B assay; type: functional; details: A549, 48 h
[8] = Growth inhibition of human EKVX cells after 48 hrs by sulforhodamine B assay; type: functional
HOP-62 = test: Growth inhibition of human HOP62 cells after 48 hrs by sulforhodamine B assay; type: functional; details: HOP-62, 48 h
NCI-H226 = test: Growth inhibition of human NCI-H226 cells after 48 hrs by sulforhodamine B assay; type: functional; details: NCI-H226, 48 h
NCI-H23 = test: Growth inhibition of human NCI-H23 cells after 48 hrs by sulforhodamine B assay; type: functional; details: NCI-H23, 48 h
NCI-H322M = test: Growth inhibition of human NCI-H322M cells after 48 hrs by sulforhodamine B assay; type: functional
NCI-H460 = test: Growth inhibition of human NCI-H460 cells after 48 hrs by sulforhodamine B assay; type: functional; details: NCI-H460, 48 h
NCI-H522 = test: Growth inhibition of human NCI-H522 cells after 48 hrs by sulforhodamine B assay; type: functional; details: NCI-H522, 48 h
SF-268 = test: Growth inhibition of human SF268 cells after 48 hrs by sulforhodamine B assay; type: functional; details: SF-268, 48 h
[9] = Growth inhibition of human SF295 cells after 48 hrs by sulforhodamine B assay; type: functional; details: SF-295, 48 h
[10] = Growth inhibition of human SF539 cells after 48 hrs by sulforhodamine B assay; type: functional; details: SF-539, 48 h
SNB-19 = test: Growth inhibition of human SNB19 cells after 48 hrs by sulforhodamine B assay; type: functional; details: SNB-19, 48 h
SNB-75 = test: Growth inhibition of human SNB75 cells after 48 hrs by sulforhodamine B assay; type: functional; details: SNB-75, 48 h
IGROV-1 = test: Growth inhibition of human IGROV1 cells after 48 hrs by sulforhodamine B assay; type: functional; details: IGROV-1, 48 h
[11] = Growth inhibition of human OVCAR4 cells after 48 hrs by sulforhodamine B assay; type: functional; details: OVCAR-4, 48 h
[12] = Growth inhibition of human OVCAR5 cells after 48 hrs by sulforhodamine B assay; type: functional; details: OVCAR-5, 48 h
NCI/ADR-RES = test: Growth inhibition of human NCI/ADR-RES cells after 48 hrs by sulforhodamine B assay; type: functional
Malme-3M = test: Growth inhibition of human MALME-3M cells after 48 hrs by sulforhodamine B assay; type: functional
M14 = test: Growth inhibition of human M14 cells after 48 hrs by sulforhodamine B assay; type: functional; details: M14, 48 h
MDA-MB-435 [13] = test: Growth inhibition of human MDA-MB-435 cells after 48 hrs by sulforhodamine B assay; type: functional; details: MDA-MB-435, 48 h
SK-MEL-2 = test: Growth inhibition of human SK-MEL-2 cells after 48 hrs by sulforhodamine B assay; type: functional; details: SK-MEL-2, 48 h
SK-MEL-28 = test: Growth inhibition of human SK-MEL-28 cells after 48 hrs by sulforhodamine B assay; type: functional; details: SK-MEL-28, 48 h
SK-MEL-5 = test: Growth inhibition of human SK-MEL-5 cells after 48 hrs by sulforhodamine B assay; type: functional; details: SK-MEL-5, 48 h
786-0 = test: Growth inhibition of human 786-0 cells after 48 hrs by sulforhodamine B assay; type: functional; details: 786-0, 48 h
A498 = test: Growth inhibition of human A498 cells after 48 hrs by sulforhodamine B assay; type: functional; details: A498, 48 h
ACHN = test: Growth inhibition of human ACHN cells after 48 hrs by sulforhodamine B assay; type: functional
CAKI-1 = test: Growth inhibition of human Caki1 cells after 48 hrs by sulforhodamine B assay; type: functional; details: CAKI-1, 48 h
SN12C = test: Growth inhibition of human SN12C cells after 48 hrs by sulforhodamine B assay; type: functional
TK-10 = test: Growth inhibition of human TK10 cells after 48 hrs by sulforhodamine B assay; type: functional; details: TK-10, 48 h
[14] = Growth inhibition of human COLO205 cells after 48 hrs by sulforhodamine B assay; type: functional; details: COLO 205, 48 h
[15] = Growth inhibition of human HCC2998 cells after 48 hrs by sulforhodamine B assay; type: functional; details: HCC 2998, 48 h
HT-29 = test: Growth inhibition of human HT-29 cells after 48 hrs by sulforhodamine B assay; type: functional; details: HT-29, 48 h
KM12 = test: Growth inhibition of human KM12 cells after 48 hrs by sulforhodamine B assay; type: functional; details: KM12, 48 h
[16] = Growth inhibition of human PC3 cells after 48 hrs by sulforhodamine B assay; type: functional; details: PC-3, 48 h
DU-145 = test: Growth inhibition of human DU145 cells after 48 hrs by sulforhodamine B assay; type: functional; details: DU-145, 48 h
MCF7 = test: Growth inhibition of human MCF7 cells after 48 hrs by sulforhodamine B assay; type: functional; details: MCF7, 48 h
[17] = Growth inhibition of human Hs 578T cells after 48 hrs by sulforhodamine B assay; type: functional
[18] = Growth inhibition of human BT549 cells after 48 hrs by sulforhodamine B assay; type: functional; details: BT-549, 48 h
CCRF-CEM = test: Growth inhibition of human CCRF-CEM cells after 48 hrs by sulforhodamine B assay; type: functional
HL-60(TB) = test: Growth inhibition of human HL-60(TB) cells after 48 hrs by sulforhodamine B assay; type: functional; details: HL-60, 48 h
[19] = Growth inhibition of human MOLT4 cells after 48 hrs by sulforhodamine B assay; type: functional; details: MOLT-4, 48 h
[20] = Growth inhibition of human […] cells after 48 hrs by sulforhodamine B assay; type: functional
Tubulin (Bos taurus) [21] = target: T1, Tubulin (Bos taurus) (UniProt Q6B856+Q862L2+Q862F3); test: Displacement of [3H]colchicine from bovine brain tubulin assembly at 1 uM
Tubulin (Bos taurus) [22] = target: T1, Tubulin (Bos taurus); test: Displacement of [3H]colchicine from bovine brain tubulin assembly at 5 uM

`COc1ccc2c(c1)CCCN2c1nc(C)nc2oc(C)cc12` showed an IC50 [1] of 104000 nM, an EC50 [2] of 21 nM and an IC50 (MDA-MB-435 [3]) of 9.8 nM. It also gave an IC50 (HeLa [4]) of 13.5 nM, an IC50 (HeLa [5]) of 9.1 nM and an IC50 [6] of 12.9 nM. It also gave an IC50 [7] of 19.4 nM, a GI50 (A549) of under 10 nM and a GI50 [8] of under 10 nM. For the same compound, the GI50 (HOP-62) was under 10 nM, the GI50 (NCI-H226) was 13 nM and the GI50 (NCI-H23) was under 10 nM. For the same compound, the GI50 (NCI-H322M) was under 10 nM, the GI50 (NCI-H460) was under 10 nM and the GI50 (NCI-H522) was under 10 nM. The GI50 (SF-268) was 16.8 nM, the GI50 [9] was under 10 nM and the GI50 [10] was under 10 nM. For the same compound, the GI50 (SNB-19) was under 10 nM, the GI50 (SNB-75) was under 10 nM and the GI50 (IGROV-1) was under 10 nM. For the same compound, the GI50 [11] was 51 nM, the GI50 [12] was 43 nM and the GI50 (NCI/ADR-RES) was under 10 nM. The GI50 (Malme-3M) was under 10 nM, the GI50 (M14) was under 10 nM and the GI50 (MDA-MB-435 [13]) was under 10 nM. For the same compound, the GI50 (SK-MEL-2) was under 10 nM, the GI50 (SK-MEL-28) was under 10 nM and the GI50 (SK-MEL-5) was under 10 nM. For the same compound, the GI50 (786-0) was under 10 nM, the GI50 (A498) was under 10 nM and the GI50 (ACHN) was under 10 nM. The GI50 (CAKI-1) was under 10 nM, the GI50 (SN12C) was under 10 nM and the GI50 (TK-10) was under 10 nM. It also gave a GI50 [14] of under 10 nM, a GI50 [15] of 12 nM and a GI50 (HT-29) of under 10 nM. It also gave a GI50 (KM12) of under 10 nM, a GI50 [16] of under 10 nM and a GI50 (DU-145) of under 10 nM. The GI50 (MCF7) was under 10 nM, the GI50 [17] was under 10 nM and the GI50 [18] was under 10 nM. The GI50 (CCRF-CEM) was under 10 nM, the GI50 (HL-60(TB)) was under 10 nM and the GI50 [19] was 15 nM. The GI50 [20] was under 10 nM, the inhibition (Tubulin (Bos taurus) [21]) was 82% and the inhibition (Tubulin (Bos taurus) [22]) was 96%.

Source: ChEMBL document CHEMBL3400114, “The design, synthesis and biological evaluation of conformationally restricted 4-substituted-2,6-dimethylfuro[2,3-d]pyrimidines as multi-targeted receptor tyrosine kinase and microtubule inhibitors as potential antitumor agents” (Bioorg Med Chem, 2015)
